# Source: publication PMC11901705 (Molecules, 2025)
# How the values were obtained:
# [1] = Stability of vancomycin in extracted human plasma samples; assay type: physicochemical; conditions: for Mean back calculated Vancomycin Concentrations: extracted human plasma, HPLC-UV, mean of n = 5
# Procedure: (§1) The chromatographic separation was performed using HPLC-UV (Shimadzu, Kyoto, Japan), which consisted of solvent delivery pumps (LC-20 AT), an SIL-20A autosampler, and a UV-VIS detector (SPD-10A VP). The HPLC chromatographic separation was performed using a reverse-phase Supleco Discovery® C18 column (5 μm, 250 × 4.6 mm) (Supleco Inc., Mississauga, ON, Canada) with a Discovery® C18 Supelguard™ guard column (5 μm, 20 × 4 mm) (Supleco Inc., Mississauga, ON, Canada). LabSolutions Lite® software version 5.93 (Shimadzu, Kyoto, Japan) was used for the acquisition of data and analysis integration. The mobile phase comprised phosphate buffer and ACN (90:10, v/v). A phosphate buffer with a pH of 2.8 was prepared by combining 175 mL of 0.1 M phosphoric acid with 825 mL of 0.1 M monobasic sodium monophosphate. […] The final concentration of the phosphate buffer was 0.1 M. Separation was carried out using isocratic elution. The flow rate was set to 1 mL/min. The total run time for sample elution was set to 10 min. The detector was set to a wavelength of 192 nm, with the column and autosampler operated at ambient temperature.
# (§2) The mixture was vortexed for 40 s and centrifuged at 12,000 rpm for 10 min using an Eppendorf 5424 Microcentrifuge (Eppendorf, Hamburg, Germany). The resultant supernatant was then transferred to a separate HPLC vial with glass inserts. Aliquots of 30 μL was then injected into the HPLC system for analysis. The sample preparation was performed at room temperature and directly injected into the HPLC system.
# (§3) The conditions for stability assessment were designed to simulate the conditions encountered during sample storage, handling, and analysis. […] Additionally, we conducted an assessment of freeze–thaw stability involving three cycles, each comprising a 24 h freezing period followed by room temperature thawing, with the cycle being repeated. Acceptability criteria included a stability ratio to reference samples falling within the range of 85% to 115% and a percentage error within 15%.
# [2] = Freeze and thaw stability of vancomycin in human plasma; assay type: in vitro ADME; conditions: nominal 10 mg/L
# Procedure: as §1
# The mixture was vortexed for 40 s and centrifuged at 12,000 rpm for 10 min using an Eppendorf 5424 Microcentrifuge (Eppendorf, Hamburg, Germany). The resultant supernatant was then transferred to a separate HPLC vial with glass inserts. […]
# [3] = cited from earlier work
# Text: It is also the preferred agent for managing Gram-positive bacterial infections in patients allergic to beta-lactam antimicrobials.
# [4] = Stability of vancomycin in non-extracted human plasma samples; assay type: in vitro ADME; conditions: for Mean back calculated Vancomycin Concentrations / % Error: non-extracted human plasma; for Mean back calculated Vancomycin Concentrations: HPLC-UV, mean of n = 5; for % Error: n = 5; for time of stability: plasma samples (non-extracted)
# Procedure: as §1, §2, §3
# [5] = -80 °C, 2 weeks, nominal 10 mg/L
# [6] = -80 °C, 24 hours, nominal 10 mg/L
# [7] = room temperature, 24 hours, nominal 10 mg/L
# [8] = -20 °C, 2 weeks, nominal 10 mg/L
# [9] = -80 °C, 24 hours, nominal 70 mg/L
# [10] = fridge temperature, 2 weeks, nominal 10 mg/L
# [11] = fridge temperature, 3 hours, nominal 10 mg/L
# [12] = fridge temperature, 3 hours, nominal 70 mg/L
# [13] = fridge temperature, 24 hours, nominal 10 mg/L
smiles,measurement,setting,value
CN[C@H](CC(C)C)C(=O)N[C@H]1C(=O)N[C@@H](CC(N)=O)C(=O)N[C@H]2C(=O)N[C@H]3C(=O)N[C@H](C(=O)N[C@H](C(=O)O)c4cc(O)cc(O)c4-c4cc3ccc4O)[C@H](O)c3ccc(c(Cl)c3)Oc3cc2cc(c3O[C@@H]2O[C@H](CO)[C@@H](O)[C@H](O)[C@H]2O[C@H]2C[C@](C)(N)[C@H](O)[C@H](C)O2)Oc2ccc(cc2Cl)[C@H]1O [Vancomycin],period with satisfactory precision and accuracy,"[1]; extracted human plasma samples, -80 °C storage",2 week
same,degradation on storage at room temperature,"[1]; extracted human plasma samples, storage for 24 h, 1 week and 2 weeks",substantial degradation
same,period with satisfactory precision and accuracy,"[1]; extracted human plasma samples, under refrigeration",2 week
same,Mean back calculated Vancomycin Concentrations,[1]; [5],8.980 mg/L
same,Mean back calculated Vancomycin Concentrations,[1]; [6],9.888 mg/L
same,Mean back calculated Vancomycin Concentrations,"[1]; fridge temperature (4 °C), 2 weeks, nominal 10 mg/L",8.307 mg/L
same,Mean back calculated Vancomycin Concentrations,"[1]; fridge temperature (4 °C), 3 hours, nominal 10 mg/L",8.720 mg/L
same,Mean back calculated Vancomycin Concentrations,"[1]; fridge temperature (4 °C), 24 hours, nominal 10 mg/L",9.740 mg/L
same,Mean back calculated Vancomycin Concentrations,"[1]; fridge temperature (4 °C), 24 hours, nominal 70 mg/L",76.528 mg/L
same,Mean back calculated Vancomycin Concentrations,"[1]; room temperature, 1 week, nominal 10 mg/L",2.491 mg/L
same,Mean back calculated Vancomycin Concentrations,"[1]; room temperature, 2 weeks, nominal 10 mg/L",0.722 mg/L
same,Mean back calculated Vancomycin Concentrations,"[1]; room temperature, 2 weeks, nominal 70 mg/L",3.647 mg/L
same,Mean back calculated Vancomycin Concentrations,"[1]; room temperature, 3 hours, nominal 10 mg/L",9.283 mg/L
same,Mean back calculated Vancomycin Concentrations,[1]; [7],6.792 mg/L
same,Mean back calculated Vancomycin Concentrations,"[2]; three freeze-thaw cycles (24 h freezing, room temperature thawing), HPLC-UV, mean of n = 5",9.289 mg/L
same,% Error,"[2]; three freeze-thaw cycles, n = 5",7.110%
same,oral bioavailability,[3],negligible
same,Mean back calculated Vancomycin Concentrations,[4]; [8],8.179 mg/L
same,% Error,[4]; [8],18.210%
same,% Error,"[4]; -20 °C, 2 weeks, nominal 70 mg/L",12.943%
same,Mean back calculated Vancomycin Concentrations,[4]; [5],8.809 mg/L
same,% Error,[4]; [5],11.910%
same,Mean back calculated Vancomycin Concentrations,"[4]; -80 °C, 2 weeks, nominal 70 mg/L",69.056 mg/L
same,Mean back calculated Vancomycin Concentrations,[4]; [6],9.282 mg/L
same,Mean back calculated Vancomycin Concentrations,[4]; [9],67.964 mg/L
same,% Error,[4]; [9],2.909%
same,Mean back calculated Vancomycin Concentrations,[4]; [10],8.404 mg/L
same,% Error,[4]; [10],15.960%
same,% Error,"[4]; fridge temperature, 2 weeks, nominal 70 mg/L",1.271%
same,Mean back calculated Vancomycin Concentrations,[4]; [11],9.276 mg/L
same,% Error,[4]; [11],7.240%
same,Mean back calculated Vancomycin Concentrations,[4]; [12],75.272 mg/L
same,% Error,[4]; [12],7.531%
same,Mean back calculated Vancomycin Concentrations,[4]; [13],8.860 mg/L
same,% Error,[4]; [13],11.400%
same,% Error,"[4]; fridge temperature, 24 hours, nominal 70 mg/L",0.770%
same,Mean back calculated Vancomycin Concentrations,"[4]; room temperature, 3 hours, nominal 70 mg/L",70.355 mg/L
same,Mean back calculated Vancomycin Concentrations,[4]; [7],9.543 mg/L
same,time of stability,[4]; -80 °C,2 weeks
same,time of stability,[4]; room temperature,24 h
